Measured values from patent publication US9963462B2 (priority 2015, dated 2018).
Read-outs that look alike come from different tables or passages of the source.

How the values were obtained:
[1] = target: SNAP-hSPR (sepiapterin reductase, SPR) (Homo sapiens, UniProt P35270); assay: biochemical; type: binding; details: terbium labelled SNAP-hSPR / SSZ labelled SNAP-EGFP; read-out: hTR-FRET IC50
Text: TR-FRET Assay: A TR-FRET (homogeneous, time-resolved, fluorescence resonance energy transfer) assay was used to assess activity of compounds following standard assay conditions. […] Compounds were screened at different concentrations and IC50 values calculated.
Terbium labelled SNAP-hSPR and SSZ (sulfasalazine) labelled SNAP-EGFP were used as the protein pair in this assay. Compounds were screened at different concentrations, and 1050 and Kd values calculated.

[2] = tested on: BH4 levels in SK-N-BE (2) cells; assay: SKN-N-BE (2) cellular assay, BH4 levels by LC-MS; type: cell-based
[3] = Homo sapiens, SKNBE2, read-out: SK-N-BE(2) IC50, SK-N-BE (2) cells, BH4 levels by LC-MS

Chain of SNAP-hSPR (sepiapterin reductase, SPR) (P35270 whole entry): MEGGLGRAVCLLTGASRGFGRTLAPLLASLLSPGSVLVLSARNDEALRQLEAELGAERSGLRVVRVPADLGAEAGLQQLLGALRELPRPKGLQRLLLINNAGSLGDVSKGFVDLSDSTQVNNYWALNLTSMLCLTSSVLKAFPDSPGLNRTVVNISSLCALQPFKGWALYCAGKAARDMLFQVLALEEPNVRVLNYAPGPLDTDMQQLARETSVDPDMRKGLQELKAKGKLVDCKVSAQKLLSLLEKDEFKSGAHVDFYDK

Row | Compound | IC50 [1] [nM] | IC50 [2, 3] [nM] | IC50 ([2]; read-out: SK-N-BE(2) IC50, SK-N-BE (2) cells, BH4 levels by LC-MS) [nM]
1 | Cc1c(C(=O)N2CCN(C(=O)C34CC(C#N)(C3)C4)CC2)cnn1-c1nc2c(c(=O)[nH]1)CCC2 [Q-0632, 3-(4-(5-methyl-1-(4-oxo-4,5,6,7-tetrahydro-3H-cyclopenta[d]pyrimidin-2-yl)-1H-pyrazole-4-carbonyl)piperazine-1-carbonyl)bicyclo[1.1.1]pentane-1-carbonitrile] | 4 | 7300 | 
2 | Cc1c(C(=O)N2CCCCC2)cnn1-c1nc2c(c(=O)[nH]1)CCC2 [Q-0633] | 5 | 400 | 
3 | Cc1c(C(=O)N2CCCCC2)cnn1-c1nn2cccc2c(=O)[nH]1 [Q-0634] | 3 | 700 | 
4 | Cc1c(C(=O)N2CCC3(CC2)CC3)cnn1-c1nn2cccc2c(=O)[nH]1 [Q-0681] | 1 | 200 | 
5 | Cc1c(C(=O)N2CCC3(CC2)CC(F)(F)C3)cnn1-c1nc2c(c(=O)[nH]1)CCC2 [Q-0691] | 2 | 91 | 
6 | Cc1c(C(=O)N2CCC3(CC2)CC3c2nnc(-c3ccccc3)o2)cnn1-c1nn2cccc2c(=O)[nH]1 (stereo not shown) [Q-0696] | 4 | 400 | 
7 | Cc1c(C(=O)N2CCC3(CC2)CC3c2nnc(-c3ccccc3)o2)cnn1-c1nc2c(c(=O)[nH]1)CCC2 (stereo not shown) [Q-0697] | 4 | 200 | 
8 | Cc1c(C(=O)N2CCC(C3CC3)CC2)cnn1-c1nc2ccsc2c(=O)[nH]1 [Q-0698] | 1 | 71 | 
9 | Cc1c(C(=O)N2CCC(C3CC3)CC2)cnn1-c1nc2sccc2c(=O)[nH]1 [Q-0700] | 2 | 100 | 
10 | Cc1c(C(=O)N2CCC(C(O)(C(F)(F)F)C(F)(F)F)CC2)cnn1-c1nc2c(c(=O)[nH]1)CCC2 [Q-0701] | 2 |  | 82
11 | O=C(c1cnn(-c2nc3c(c(=O)[nH]2)CCC3)c1)N1CCC(c2c[nH]c3ccccc23)CC1 [Q-0702] | 2 | 32 | 
12 | Cc1c(C(=O)N2CCC(CC(F)(F)F)CC2)cnn1-c1nc2ccsc2c(=O)[nH]1 [Q-0704] | 2 | 200 | 
13 | O=C(c1cnn(-c2nc3c(c(=O)[nH]2)CCC3)c1)N1CCC2(CC1)CC2 [Q-0705] | 2 | 43 | 
14 | O=C(c1cnn(-c2nc3c(c(=O)[nH]2)CCC3)c1)N1CCC(C2CC2)CC1 [Q-0706] | 2 | 30 | 
15 | O=C(c1cnn(-c2nc3c(c(=O)[nH]2)CCC3)c1)N1CCC(c2nc3cc(F)ccc3s2)CC1 [Q-0707] | 5 | 300 | 
16 | O=C(c1cnn(-c2nn3cccc3c(=O)[nH]2)c1)N1CCC2(CC1)CC2 [Q-0708] | 1 | 97 | 
17 | O=C(c1cnn(-c2nn3cccc3c(=O)[nH]2)c1)N1CCC(C2CC2)CC1 [Q-0709] | 1 | 28 | 
18 | CC(C)(C#N)C1CCN(C(=O)c2cnn(-c3nc4c(c(=O)[nH]3)CCC4)c2)CC1 [Q-0710] | 2 | 200 | 
19 | O=C(c1cnn(-c2nc3ccsc3c(=O)[nH]2)c1)N1CCC(C2CC2)CC1 [Q-0711] | 2 | 86 | 
20 | O=C(c1cnn(-c2nc3ccsc3c(=O)[nH]2)c1)N1CCC(CC(F)(F)F)CC1 [Q-0712] | 2 | 300 | 
21 | O=C(c1cnn(-c2nn3cccc3c(=O)[nH]2)c1)N1CCC(CC(F)(F)F)CC1 [Q-0713] | 1 | 200 | 
22 | Cc1c(C(=O)N2CCNCC2)cnn1-c1nc2c(c(=O)[nH]1)CCC2 [Q-0714] | 30 | 8100 | 
23 | Cc1c(C(=O)N2CCN(c3ccc(F)cc3F)CC2)cnn1-c1nn2cccc2c(=O)[nH]1 [Q-0715] | 2 | 97 | 
24 | O=C(c1cnn(-c2nn3cccc3c(=O)[nH]2)c1)N1CCC(S(=O)(=O)c2ccc(F)c(F)c2)CC1 [Q-0716] | 2 | 400 | 
25 | O=C(c1cnn(-c2nc3c(c(=O)[nH]2)CCC3)c1)N1CCC(c2nc3ccc(F)cc3s2)CC1 [Q-0718] | 4 | 200 | 
26 | O=C(c1cnn(-c2nn3cccc3c(=O)[nH]2)c1)N1CCC(C(O)(C(F)(F)F)C(F)(F)F)CC1 [Q-0719] | 2 | 200 | 
